Measurements: US10238113B2, “Method for protecting plants from stress and senescence” (BEN-GURION UNIVERSITY OF THE NEGEV RESEARCH AND DEVELOPMENT …, priority 2008, dated 2019)

Key:
[1] = test system: Col wild type plants; assay: Xanthine determination in allopurinol-treated leaves/leaf discs during dark stress; type: in vivo, Arabidopsis thaliana; settings: allopurinol applied to wild type plants
Protocol: (§1) FIG. 8a: xanthine (1 mM) in the presence or absence of allopurinol (1 mM, +/−Allo), was applied for 48 h to leaf discs placed in the dark and photographed 24 h after being transferred to 16 h light/8 h dark regime (left upper panel). Remaining chlorophyll, xanthine, allantoin and allantoate were determined in leaf discs sampled at the beginning of the experiment (light) or after 72 h (as described above) without xanthine (dark). FIG. 8b: allantoin or allantoate (0.1 mM) in the presence or absence of allopurinol (1 mm, +/−Allo) was applied to leaf discs for 2 h in the dark after keeping the discs in the dark for 48 h. Discs were photographed 24 h after being transferred to 16 h light/8 h dark regime (left upper panel). Leaf discs were washed twice before sampling for xanthine, allantoin and allantoate determination (right and bottom panels). Bars show mean±SEM (n=16).
Ureides were extracted from leaves with 80% ethanol and determined according to Vogels G. D. and Van Der Drift C. (1970 Anal Biochem 33, 143-157) using allantoic acid and allantoin as references. Six samples were analyzed and averaged for each data points. […] Hypoxanthine/xanthine were determined by high performance liquid chromatography (HPLC) using a 100×2.1 mm ID, ODS-Hypersil (5 μm) column. […] The hypoxanthine and xanthine were detected using standards retention time and UV absorption spectra ratio at 249 nm and 267 nm. […]

[2] = test system: leaf discs cut from Col and Atxdh mutants rosette leaves; assay: Leaf discs treated with purine catabolites under dark-induced stress, remaining chlorophyll; type: in vivo, Arabidopsis thaliana; settings: for protection from chlorophyll degradation: 0.1 mM, applied 2 h after 48 h dark treatment, +/- allopurinol, Col and Atxdh mutants
Protocol: as §1
Cell death was visualized in leaves sampled from dark stressed and control unstressed plants, by lactophenol-trypan blue staining followed by destaining in saturated chloral hydrate (Koch E. and Slusarenko A. 1990 Plant Cell 2, 437-445). Total chlorophyll content was measured in extracts of the fully expanded leaves as described before (Brychkova et al., 2007, ibid). The values for remaining chlorophyll content in leaf discs were determined as the amount of chlorophyll per disc divided by the amount of chlorophyll per untreated control and expressed as a percentage. The severity of leaf damage after dark stress was as follows: 1, no damage; 2, <30%; 3, 30-50%; 4, >50% of the leaf area damaged. The average leaf damage was then multiplied by the total number of damaged leaves to determine the damage level. Means±SEM for each treatment are presented.
The dark-induced loss of chlorophyll and the accelerated cell death during recovery may be due to the accumulation of excess oxypurines (FIG. 5a) or to the lack of a protective environment provided by ureides (FIGS. 5b and 5c) or both. To examine this directly, leaf discs cut from Col and Atxdh mutants rosette leaves were treated with xanthine for 48 h in the dark and were sampled after 24 h in the light. […] The observations indicate that ureides may protect chlorophyll from degradation during dark treatment and the recovery period. To elucidate the role of allantoin and allantoate directly, leaf discs were treated with 0.1 mM allantoin or allantoate. […] Importantly, the protection by the ureides was afforded in spite of the significant accumulation of xanthine in allopurinol-treated Col plants and Atxdh mutants (FIG. 8b).

[3] = test system: leaf discs of Col and Ri plants; assay: DAB-H2O2 staining of leaf discs treated with allantoin or allantoate; type: in vivo, Arabidopsis thaliana; settings: 0.1 mM for 2 h after 24 h dark
Protocol: (§2) FIGS. 9a-9c show reactive oxygen species (ROS) accumulation in the presence of allantoin and allantoate in Arabidopsis wild-type (Col) and xdh1 RNA interference (Ri) lines. FIG. 9a left panel: leaf discs removed from Col plants placed for 24 h in the dark in the presence or absence of allantoin or allantoate (0.1 mM) and then washed and treated with H2O2 (0, 20, 50 mM) for an additional 6 h in the dark. Right panel: remaining chlorophyll determined 24 h after the disc were transferred to a 16 h light/8 h dark regime. Bars show mean±SEM (n=16). […] Total H2O2 relative production (right insert) was quantified in leave discs kept in the dark for 24 h and then treated with allantoin or allantoate for additional 2 h in the dark, using DAB staining Results are from two independent experiments. Error bars indicate SE (n=16). The lower case letters (a, b) indicate P<0.001 for the differences within treatment between ecotypes. […] Leaf discs were treated and analyzed as in FIG. 9b above. Total relative superoxide production was quantified in leaf discs from 2 independent experiments. […]
(§3) Nitroblue tetrazolium (NBT) O2^− staining of leaves was performed essentially according to Jabs T. et al. (1996 Science 273, 1853-1856) and Fryer M. J. et al. (2002 J Exp Bot 53, 1249-1254). […] NBT and DAB stained leaves and leaf discs were quantified using NIH Image Software (Version 1.6). […]

[4] = test system: Parsley leaf discs; assay: Allantoin application on senescence in parsley leaf discs exposed to dark stress, chlorophyll content; type: in vivo
Protocol: FIG. 14 relates to the influence of allantoin application on senescence in parsley leaf discs exposed to dark stress. Parsley leaf discs were kept for 2 days in the light and then transferred to the dark for additional 2 days with or without the addition of 0 to 10 mM allantoin. CL—control undetached leaves in the light.
Reference is also made to FIG. 14 showing that allantoin application prevents leaf spoilage in Parsley. Parsley leaf discs were kept for 2 days in the light and then for 2 days in the dark with or without the addition of 0 to 10 mM allantoin. Undetached leaves kept in the light served as control (CL). The influence of allantoin application on senescence in parsley was examined by measuring the chlorophyll content relative to the content in the control undeteched leaves.

[5] = test system: leaf discs of Col and Ri plants; assay: NBT-O2- staining of leaf discs treated with allantoin or allantoate; type: in vivo, Arabidopsis thaliana; settings: 0.1 mM for 2 h after 24 h dark; Col lines
Protocol: as §2, §3

[6] = test system: tomato leaf discs; assay: Allantoin application to tomato leaf discs, chlorophyll degradation; type: in vivo; settings: 0.1 mM and 0.5 mM allantoin; discs 2 days dark then 2 days light

SMILES: Oc1ncnc2[nH]ncc12 [allopurinol, reference compound]
- xanthine accumulation [1]: led to xanthine accumulation
- effect on xanthine-caused reduction in chlorophyll ([2]; allopurinol 1 mM in the presence of 1 mM xanthine, wild type and mutant Ri lines): exacerbated

SMILES: NC(=O)NC1NC(=O)NC1=O (stereo not drawn) [allantoin]
- reduction in DAB staining intensity (H2O2) [3]: 2 fold
- prevention of chlorophyll loss (chlorophyll content relative to control undetached leaves) ([4]; 0.1-0.5 mM allantoin, 2 days light then 2 days dark): particularly effective in preventing the chlorophyll loss
- protection of leaves from chlorophyll degradation and yellowing ([4]; 0.1-10 mM allantoin, summary of parsley and tomato leaf disc results): protects leaves from chlorophyll degradation and yellowing
- protection from chlorophyll degradation [2]: protected the treated leaf discs from chlorophyll degradation
- NBT staining (superoxide) [5]: significantly reduced staining
- chlorophyll degradation [6]: delayed the chlorophyll degradation

SMILES: NC(=O)NC(NC(N)=O)C(=O)O [allantoate]
- reduction in DAB staining intensity (H2O2) [3]: 2 fold
- protection from chlorophyll degradation [2]: protected the treated leaf discs from chlorophyll degradation
- NBT staining (superoxide) [5]: significantly reduced staining

SMILES: O=c1[nH]c(=O)c2[nH]cnc2[nH]1 [xanthine]
- effect on chlorophyll ([2]; 1 mM xanthine, 48 h in the dark, sampled after 24 h in the light, Col and Ri leaf discs): caused a reduction in chlorophyll
